This note sets out measurements from patent publication US20250129067A1 (Progentos Therapeutics, Inc., priority 2021, published 2025).

The test system of data set [1] is Oligodendrocyte progenitor cells (OPCs).
A further data set addresses PDGFRα (Homo sapiens (Human), UniProt P16234). Description: PDGFRα kinase enzyme assay (Promega PDGFRα Kinase Enzyme System, ADP-Glo). In kind it is biochemical. Particulars: 11-point dose response, 10,000 nM to 0.169 nM, 150 uM ATP, BLQ = below limit of quantitation. The procedure, abridged: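 Purified PDGFRα protein (20 ng) reacted with test compound per the Promega kinase system protocol. ADP formed was measured by ADP-Glo luminescence against a standard curve, giving IC50.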
In general terms: In ADP-Glo the light output rises with the ADP produced.

Data set [2] deals with Oligodendrocyte progenitor cells (OPCs). This is another data set of the same source.
In data set [3] the test system is newly generated, GPR17+, oligodendrocytes. Description: in vivo GPR17 assay / in vivo OPC differentiation assay (Examples 242, 245). Particulars: healthy mice, single oral dose of 0.1, 0.33, 1 or 3.3 mg/kg, versus vehicle, n=8 mice per group. How it is done: FIGS. 2A and 2B provide representative immunohistochemistry images comparing the in vivo generation of new oligodendrocytes in the brains of mice treated with one of the following: (i) vehicle control (FIG. 2A), or (ii) PDGFRα inhibitor (Compound 6) (PO 5 mg/kg; single dose) (FIG. 2B). The newly generated oligodendrocytes are identified based on upregulation of GPR 17 expression.
Healthy mice received a single oral dose of 0.1 (“2”), 0.33 (“3”), 1 (“4”), or 3.3 (“5”) mg/kg of PDGFRα inhibitor (Compound 26). Control mice received a vehicle control (“1”). The number of newly generated, GPR17+, oligodendrocytes/mm^2 was quantitated via automated image analysis from sections spanning the anterio-posterior axis of the brain. […]
As described elsewhere in the present disclosure, some exemplary PDGFRα inhibitors of the present disclosure are capable of have greater therapeutic effect than inhibitors known in the art, e.g., when an inhibitor known in the art and an exemplary inhibitor provided herein are assayed against a vehicle control. […] For example, in some aspects, a PDGFRα inhibitor of the present disclosure can achieve greater than 2-fold increase in GPR17 expression compared to a vehicle control at a dose of less than 50 mg/kg, as measured using an in vivo GPR17 assay (such as that described in Example 242). […]

Data set [4] relates to Oligodendrocyte progenitor cells (OPCs). Description: In vitro OPC differentiation assay, GPR17 expression (immunocytochemistry). Particulars: 72 hours, fold change over vehicle.
For data set [5], the system named is GPR17+ cells (newly differentiated oligodendrocytes). Description: In vivo OPC differentiation, GPR17+ cells in brain. As to conditions: Mus musculus, po, 24 h, read-out: GPR17 Fold Induction (Over Vehicle).
For data set [6], the system named is Oligodendrocyte progenitor cells (OPCs). Description: In vitro OPC differentiation assay, MBP expression (immunocytochemistry). Particulars: 72 hours of treatment; fold change over vehicle.
Data set [7] relates to GPR17+ cells (newly differentiated oligodendrocytes). As to conditions: mouse.

Where two headings read alike, the source gives them in different places.

PDGFRα, sequence (P16234 24-1089): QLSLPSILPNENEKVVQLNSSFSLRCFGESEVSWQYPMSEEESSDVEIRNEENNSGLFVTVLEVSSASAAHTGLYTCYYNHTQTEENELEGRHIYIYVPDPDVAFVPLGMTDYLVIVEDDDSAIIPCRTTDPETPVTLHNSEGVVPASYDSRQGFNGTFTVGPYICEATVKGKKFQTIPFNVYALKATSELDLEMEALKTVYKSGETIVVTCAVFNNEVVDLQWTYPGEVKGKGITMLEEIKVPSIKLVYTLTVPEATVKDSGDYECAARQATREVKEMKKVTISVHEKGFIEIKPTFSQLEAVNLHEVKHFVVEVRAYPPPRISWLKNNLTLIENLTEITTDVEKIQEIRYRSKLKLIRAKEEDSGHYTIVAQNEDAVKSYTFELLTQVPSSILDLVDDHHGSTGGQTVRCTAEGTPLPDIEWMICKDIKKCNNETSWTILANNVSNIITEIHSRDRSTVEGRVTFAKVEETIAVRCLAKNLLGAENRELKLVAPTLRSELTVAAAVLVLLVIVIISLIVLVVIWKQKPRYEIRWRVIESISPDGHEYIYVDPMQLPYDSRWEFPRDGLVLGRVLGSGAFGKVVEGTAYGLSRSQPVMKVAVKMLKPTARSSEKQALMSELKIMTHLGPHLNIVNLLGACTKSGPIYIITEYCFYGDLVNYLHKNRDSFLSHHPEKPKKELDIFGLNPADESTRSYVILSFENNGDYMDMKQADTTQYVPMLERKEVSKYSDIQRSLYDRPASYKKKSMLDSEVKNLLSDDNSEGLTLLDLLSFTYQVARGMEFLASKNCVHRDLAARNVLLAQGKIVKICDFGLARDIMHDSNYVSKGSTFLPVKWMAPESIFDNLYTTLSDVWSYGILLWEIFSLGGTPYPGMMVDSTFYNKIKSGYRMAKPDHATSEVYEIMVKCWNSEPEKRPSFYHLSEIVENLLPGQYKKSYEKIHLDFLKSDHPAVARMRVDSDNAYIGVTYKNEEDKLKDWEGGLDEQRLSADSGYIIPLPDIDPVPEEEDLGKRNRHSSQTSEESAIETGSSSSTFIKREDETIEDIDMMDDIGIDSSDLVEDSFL

One may read the IC50 as the concentration at which inhibition is half-maximal. Regarding “3-[4-(5-benzylpyrimidin-2-yl)piperazin-1-yl]-6-(1-methyl-1H-pyrazol-3-yl)pyrazolo[1,5-a]pyridine [Compound 38]”, in data set [1], the “MBP Fold Induction (Over vehicle)” value came to 1.41. The concentration for half-maximal inhibition (IC50) at PDGFRα (read-out: IC50 Values on PDGFRα Kinase Inhibition, IC50) was 4.75 µM. Moreover, in data set [2], the “GPR17 Fold Induction (Over Vehicle; 3 μM)” value stood at 7.04 and the “GPR17 Fold Induction (Over Vehicle; 5 μM)” value turned out to be 6.02.

Regarding `Cn1cc(-c2ccc3c(N4CCN(c5ncc(C(O)c6ccc(F)cc6)cn5)CC4)cnn3c2)cn1` (centres unmarked) [Compound 26, (4-fluorophenyl)(2-{4-[6-(1-methyl-1H-pyrazol-4-yl)pyrazolo[1,5-a]pyridin-3-yl]piperazin-1-yl}pyrimidin-5-yl)methanol], the “number of newly generated, GPR17+, oligodendrocytes/mm^2” value in data set [3] was “dose responsive induction”. Further, the “IC50 Values on PDGFRα Kinase Inhibition, IC50 (nM)” value on PDGFRα is “BLQ”. For the same compound, the “GPR17 Fold Induction (Over Vehicle; 3 μM)” value in data set [4] (3 μM (10× concentration, final 0.3 μM)) came to 13.87. In data set [4] (5 μM (10× concentration, final 0.5 μM)), the “GPR17 Fold Induction (Over Vehicle; 5 μM)” value is recorded as 4.97. Besides, the fold induction at 3.3 mg/kg in data set [5] worked out at 12.1. Moreover, the “MBP Fold Induction (Over vehicle)” value in data set [6] is 5.23.

Consider `CN(C)CCC=C1c2ccccc2COc2ccccc21` [Doxepin], for which the “In vivo GPR17+ cells, GPR17 Fold Induction (Over Vehicle)” value in data set [7] is on record as 1.36.
